From paper PMC11505670, “Four newly synthesized enones induce mitochondrial-mediated apoptosis and G2/M cell cycle arrest in colorectal and cervical cancer cells” (RSC Advances, 2024)

Assays:
Type in all cases: cell-based, human
[1] = test system: Bax and Bcl-2 in HCT-116 cells; test: Flow cytometric analysis of Bax and Bcl-2 expression, HCT-116; conditions: HCT-116, IC50 concentration, 48 h, from MFI
Description: (§1) Cells were washed with PBS, fixed, permeabilized using Fixation and Permeabilization Kit (eBioscience), and stained separately for Bcl-2, Bax, and cleaved-caspase-3.[8,9] Permeabilized cells were incubated with primary antibodies: mouse anti-human-Bcl-2 (DC21, sc-783, Santa Cruz Biotech. Inc.), mouse anti-human Bax (N20, sc-493, Santa Cruz Biotech. Inc.), and anti-cleaved caspase-3 (Cell signaling Technology 9661). Following antibody incubation, cells were washed and incubated with secondary Alexa 488-conjugated antibodies (ab185015, Abcam, United Kingdom) for 30 minutes. After an additional wash with PBS, flow cytometry analysis was performed.
(§2) Data were analyzed using FlowJo Software. The expression of Bcl-2 and Bax proteins was quantified as mean fluorescence intensity (MFI). The results were presented with bar graphs. Bax/Bcl-2 index was calculated using the formula […]. The percentage of cells expressing active caspase-3 (MFI) was presented in histograms.

[2] = test system: HCT-116 cells; test: Cell cycle analysis (PI, flow cytometry), HCT-116; conditions: IC50 concentration, 48 h; control 27.4%
Description: (§3) After treatment of HCT-116 and HeLa cells with enones, cells were harvested, washed with PBS, and fixed in 70% ice-cold ethanol at +4 °C overnight.[10] The cells were then pelleted, resuspended in 1 ml PBS containing RNAse A (12091021, Sigma Aldrich), and incubated for 30 min at 37 °C. A staining solution containing propidium iodide (1 mg PI per ml PBS) (B7758, Biotrend) was added to cells, followed by 15 min incubation in the dark. Cells were analyzed by flow cytometer Cytomics FC500. DNA content was determined using Flowing Software and cell cycle distribution was presented by graph (histograms).

[3] = test system: MRC-5 cells; test: MTT cytotoxicity assay, MRC-5 healthy control cells; conditions: Homo sapiens
Description: (§4) To examine and compare the antiproliferative activities of four enones, the cytotoxicity of the compounds was assessed by the 3-(4,5-dimethylthiazol-2-yl)-2,5-diphenyltetrazolium bromide (MTT) assay[9] in, colon cancer cells (HCT-116), cervical cancer cell line (HeLa) and human fibroblast lung cell line (MRC-5) that was used as a healthy control cell line. After trypsinization, seeded (5 × 10^3 cells per well in 96-well plates) cells were treated with different concentrations of the investigated enones (1, 3, 10, 30, and 100 μM) during 48 and 72 h period incubation period +37 °C and 5–6.5% CO2. After the incubation period, the medium was removed and MTT solution (5 mg ml^−1) was added to the wells.
(§5) After a 3 hour incubation with the MTT solution, the resulting formazan crystals were dissolved in DMSO (67-68-5, Merck). Absorbance was subsequently measured at 595 nm using a microplate reader (Zenith 3100, Anthos Labtech Instruments). The percentage of cytotoxic cells was determined using the formula: cytotoxicity (%) = (1 − (exp. group (ABS))/(control group (ABS)) × 100). IC50 values were calculated using GraphPad Prism 10 software. The selectivity index (SI) was determined using the formula: SI?IC50 value for healthy cells/IC50 value for tumor cells.[9]

[4] = test system: mitochondrial membrane potential (ΔΨm) in HeLa cells; test: Mitochondrial membrane potential (ΔΨm) JC-10 analysis, HeLa; conditions: IC50 concentration, 48 h
Description: (§6) Changes in the ΔΨm caused by 48 hours of enones treatment, were assessed using JC-10 dye.[10]. (Enzo Life Sciences, Farmingdale, NY, USA).
(§7) In healthy cells, JC-10 dye accumulates in the mitochondria as red fluorescent aggregates. However, upon cell damage, changes in ΔΨm occur and result in dislocation of JC-10 from the mitochondria to the cytosol and the monomerization of aggregates, shifting fluorescence from red to green. Cells were cultured in 24-well plate (3 × 10^4 cells per well) overnight in the incubator (5% CO2, 37 °C). […] Following treatment, cells were washed with warm 1xPBS and incubated with JC-10 dye (2.5 μM in warm PBS) at 5% CO2, 37 °C for 20 minutes. Cells were then washed with 1xPBS and observed using an Olympus IX50 inverted fluorescence microscope. Images were captured and analyzed using ImageJ software. The ratio of fluorescence emissions at 525 and 590 nm was used for quantification analysis.

[5] = test system: cytochrome c in HCT-116 cells; test: Cytochrome c localization by immunofluorescence, HCT-116; conditions: IC50 concentration, 48 h
Description: After 48 hours of treatment, immunofluorescence analysis of cytochrome c distribution and expression in treated cells was performed using glass coverslips.[10] Following the treatment, cells were washed with PBS, fixed in 4% formaldehyde for 20 min, and permeabilized with 0.2% Tween-20. Blocking was performed using a buffer containing 0.1% Tween-20 and 10% FBS for 30 min. The cells were then incubated for 1 hour at room temperature with a monoclonal mouse anti-human cytochrome c antibody (1:100, G7421, Promega, USA,)
Subsequently, the cells were incubated for 30 minutes with a goat anti-mouse FITC (1:200, diluted in blocking buffer), washed, and images were acquired using an inverted fluorescence microscope (Olympus IX50). Image analysis was performed using ImageJ software.

[6] = test system: HeLa cells; test: MTT cytotoxicity assay, HeLa; conditions: for Selectivity index (SI): IC50 healthy cells (MRC-5)/IC50 tumor cells; for Cytotoxicity range: concentration range 1–100 μM; for IC50: Homo sapiens, MTT
Description: as §4, §5

[7] = test system: mitochondrial membrane potential (ΔΨm) in HCT-116 cells; test: Mitochondrial membrane potential (ΔΨm) JC-10 analysis, HCT-116; conditions: IC50 concentration, 48 h
Description: as §6, §7

[8] = test system: active caspase-3 in HeLa cells; test: Flow cytometric analysis of active caspase-3, HeLa; conditions: IC50 concentration, 48 h, vs control
Description: as §1, §2

[9] = test system: Bax and Bcl-2 in HeLa cells; test: Flow cytometric analysis of Bax and Bcl-2 expression, HeLa; conditions: IC50 concentration, 48 h
Description: as §1, §2

[10] = test system: HCT-116 cells; test: MTT cytotoxicity assay, HCT-116; conditions: for Cytotoxicity range: concentration range 1–100 μM; for Selectivity index (SI): IC50 healthy cells (MRC-5)/IC50 tumor cells; for IC50: Homo sapiens, MTT
Description: as §4, §5

[11] = test system: HeLa cells; test: Annexin V-FITC/7-AAD apoptosis flow cytometry, HeLa; conditions: IC50 concentration, 48 h
Description: (§8) The type of cell death was assessed using flow cytometry using FITC Annexin V Apoptosis Detection Kit with 7-AAD (640922, Bio legend).[8] […] After treatment, cells were harvested, washed with PBS (resuspended in 100 μl of ice-cold 1X binding buffer), stained (20 μl of 7-AAD and 10 μl of Annexin V-FITC), and incubated in the dark for 15 min at +4 °C. After incubation, 400 μl of binding buffer was added and the samples were analyzed using flow cytometer Cytomics FC500 (Beckman Coulter, USA). Data analysis was performed using FlowJo Software and presented with histogram and dot plots.

[12] = test system: active caspase-3 in HCT-116 cells; test: Flow cytometric analysis of active caspase-3, HCT-116; conditions: IC50 concentration, 48 h, vs control
Description: as §1, §2

[13] = test system: HeLa cells; test: Cell cycle analysis (PI, flow cytometry), HeLa; conditions: IC50 concentration, 48 h; control 29.9%
Description: as §3

[14] = test system: HCT-116 cells; test: Annexin V-FITC/7-AAD apoptosis flow cytometry, HCT-116; conditions: IC50 concentration, 48 h
Description: as §8

For COc1cc(/C=C/C(=O)C(C)C)ccc1OCC(=O)O [E2, (E)-2-(2-Methoxy-4-(4-methyl-3-oxopent-1-en-1-yl)phenoxy)acetic acid], which Bax/Bcl-2 ratio [1] is on record?
The Bax/Bcl-2 ratio was 1.9.

What about the “% OF HCT-116 CELLS, G2/M” value [2] of the same compound?
The value was 56.1%.

What about the IC50 ([3]; MRC5, MRC-5, 48 h) of the same compound?
Its IC50 is greater than 200 µM.

And the IC50 ([3]; MRC5, MRC-5, 72 h)?
Its IC50 is greater than 90 µM.

And the “JC10-green/JC10 red ratio in HeLa cells” value [4]?
Its value is 1.9.

What about the “RELATIVE RATIO OF CYTOSOL CYTC TO MITOCHONDRIAL CYT C IN HCT-116 CELLS” value [5] of the same compound?
Its value is 1.5.

What about the “Selectivity index (SI)” value ([6]; 48 h) of the same compound?
Its value is 14.96.

What about the Cytotoxicity range ([6]; 48 h) of the same compound?
The Cytotoxicity range was 4.74–51.94%.

What about the “Selectivity index (SI)” value ([6]; 72 h) of the same compound?
The value was 26.23.

And the Cytotoxicity range ([6]; 72 h)?
Its Cytotoxicity range is 32.98–71.66%.

And the IC50 ([6]; 48 h)?
The IC50 was 13.4 ± 1.43 µM.

What about the IC50 ([6]; 72 h) of the same compound?
The IC50 was 3.43 ± 0.09 µM.

And the “JC10-green/JC10 red ratio in HCT-116 cells” value [7]?
The value was 2.15.

What about the “MFI of active caspase-3 in HeLa (fold change)” value [8] of the same compound?
The value was 2 fold change.

What about the Bax/Bcl-2 ratio ([9]; from MFI) of the same compound?
Its Bax/Bcl-2 ratio is 1.4.

What about the “Bcl-2 protein expression vs control cells” value ([9]; p < 0.05) of the same compound?
The value was “decreased”.

And the “percentage of cytotoxic HCT-116 cells compared to HeLa cells (fold)” value ([10]; 48 h, over the applied doses)?
Its value is 1.3–2.3 fold.

What about the “percentage of cytotoxic HCT-116 cells compared to control MRC-5 cells (fold)” value ([10]; 48 h, over the applied doses) of the same compound?
The value was 2.9–5.2 fold.

And the Cytotoxicity range ([10]; HCT-116, 48 h)?
The Cytotoxicity range was 10.87–71.88%.

What about the “Selectivity index (SI)” value ([10]; HCT-116, 48 h) of the same compound?
Its value is 39.22.

And the Cytotoxicity range ([10]; HCT-116, 72 h)?
Its Cytotoxicity range is 65.23–72.73%.

What about the “Selectivity index (SI)” value ([10]; HCT-116, 72 h) of the same compound?
Its value is 100.63.

What about the IC50 ([10]; HCT-116, 48 h) of the same compound?
The IC50 was 5.1 ± 0.92 µM.

And the IC50 ([10]; HCT-116, 72 h)?
The IC50 was 0.9 ± 0.02 µM.

What about the “total percentage of apoptotic HeLa cells” value [11] of the same compound?
The value was 54.02%.

What about the “MFI of active caspase-3 in HCT-116 (fold change)” value [12] of the same compound?
The value was 2.4 fold change.

And the “% OF HELA CELLS, G2/M” value [13]?
Its value is 66%.

What about the “increase of percentage of apoptotic HCT-116 cells compared to control HCT-116 cells” value [14] of the same compound?
The value was 8.8 fold.

What about the “percentage of total apoptotic HCT-116 cells (sum of early and late)” value [14] of the same compound?
Its value is 61.6%.
